For experiment [1], the species on record is Mus musculus. The experiment can be described thus: Anticonvulsant activity in male CD1 mice. Format: functional.
For experiment [2], the target named is T1, Glutamate receptor ionotropic, AMPA (Rattus norvegicus, UniProt P19490+P19491+P19492+P19493).
Description: Antagonistic activity against Ionotropic glutamate receptor AMPA using kainate-evoked current in Xenopus oocytes injected with rat brain mRNA
In experiment [3] the target is Glutamate NMDA receptor. The experiment can be described thus: Binding affinity for N-methyl-D-aspartate glutamate receptor. Format: protein-complex assay, Rattus norvegicus.
In experiment [4] the target is T1, Glutamate receptor ionotropic, AMPA. The source holds these as a separate data set.
Description: Binding affinity for Ionotropic glutamate receptor AMPA
For experiment [5], the species on record is Mus musculus. The experiment can be described thus: Compound was tested for the maximal electroshock effect in mice. Format: functional.
Experiment [6] deals with Mus musculus. The experiment can be described thus: Effective dose in MES test in mouse after i.v. administration. Format: functional. The following applies: iv.
Experiment [7] relates to Mus musculus. The experiment can be described thus: Effective dose in MES test in mouse after s.c. administration. It is filed as functional. The following applies: sc.
For experiment [8], the system named is Mus musculus. The experiment can be described thus: Effective dose in mouse after i.p. administration. Particulars: ip. It is filed as functional.
The subject of experiment [9] is Mus musculus. The experiment can be described thus: Anticonvulsant activity against glutamic acid receptor complex after subcutaneous administration in CD1 mouse. Particulars: sc. Format: functional.
Experiment [10] concerns Rattus norvegicus. The experiment can be described thus: Effective dose in MES test in SD rat after s.c. administration. It is filed as functional. Particulars: sc.
The subject of experiment [11] is Rattus norvegicus. The experiment can be described thus: Effective dose in MES test in SD rat after i.v. administration. Format: functional. Particulars: iv.
The target in experiment [12] is T1, Glutamate receptor ionotropic, AMPA. The experiment can be described thus: Binding affinity against Ionotropic glutamate receptor AMPA in rat brain.
Experiment [13] relates to Mus musculus. The experiment can be described thus: Effective dose in MES test in mouse after i.p. administration. The following applies: ip.
Experiment [14] has as its system Rattus norvegicus. The experiment can be described thus: Effective dose in MES test in SD rat after i.p. administration. The following applies: ip.
Experiment [15] has as its system Mus musculus. The experiment can be described thus: Anticonvulsant activity after subcutaneous administration in CD1 mouse.
Experiment [16] deals with Mus musculus. The experiment can be described thus: Anticonvulsant activity against GABA receptor complex after intra peritoneal administration in CD1 mouse.

The structures appear in SMILES notation. A value given as a limit tells only on which side of the number the result lay.

In experiment [1], `Oc1nc2c(n3ccnc13)Cc1ccccc1-2` had an ED50 of 62 mg/kg. In [2], this molecule registered an IC50 of 1800 nM.
Molecule `O=C(O)Cc1cn2c3c(nc(O)c2n1)-c1cccc(CC(=O)O)c1C3` had a 50% effective dose (ED50) in experiment [1] of 2 mg/kg. Moreover, the results for the IC50 in experiment [3], in experiment [4] and in experiment [2] were 2100 nM, 4 nM and 23 nM, respectively.
Take `O=C(O)[C@@H]1C[C@H]2C[C@@H](CCc3nn[nH]n3)CC[C@H]2CN1` [TEZAMPANEL ANHYDROUS]: the 50% effective dose (ED50) in experiment [1] was found to be 4 mg/kg. In addition, in [2], the IC50 is 230 nM.
Consider `O=C(O)c1cccc2c1Cc1c-2nc(O)c2nccn12`, for which the IC50 was 21000 nM in [3], 3500 nM in experiment [4] and 3250 nM in experiment [2].
Take `O=c1[nH]c2cc(-n3ccnc3)c([N+](=O)[O-])cc2[nH]c1=O` [YM-90K]: in experiment [1], the ED50 was 12 mg/kg. The molecule also yielded an IC50 in [2] of 260 nM.
Molecule `O=C(O)Cc1ccc2c(c1)Cc1c-2nc(O)c2nc(C(=O)O)cn12` returned an ED50 in experiment [1] of 16 mg/kg. The 50% inhibitory concentration (IC50) in experiment [3] is greater than 10000 nM; in experiment [4], 611 nM; in experiment [2] it was 214 nM.
In the same order, the values of `O=C(O)Cc1cccc2c1Cc1c-2nc(O)c2nccn12` are greater than 80 mg/kg, greater than 10000 nM, 89 nM and 104 nM.
As for `NS(=O)(=O)c1cccc2c1c([N+](=O)[O-])cc1nc(O)c(O)nc12` [NBQX], the ED50 in experiment [1] was determined as 36 mg/kg.
For the molecule `O=C(O)c1cn2c3c(nc(O)c2n1)-c1ccccc1C3`, the ED50 in [1] stood at 50 mg/kg. In addition, the IC50 in [3] is 83 nM; in [2], 29 nM.
Regarding `CC(C(=O)O)c1cccc2c1Cc1c-2nc(O)c2nc(C(=O)O)cn12` (configuration not stated), the ED50 in [1] worked out at 19 mg/kg. In addition, the half-maximal inhibitory concentration (IC50) was found to be 4100 nM in experiment [3], 450 nM in experiment [4] and 53 nM in experiment [2].
With `O=C(O)Cc1ccc2c(c1)Cc1c-2nc(O)c2nccn12`, the IC50 is greater than 10000 nM in [3], 10000 nM in experiment [4] and 2640 nM in experiment [2].
Take `O=C(O)Cc1cccc2c1Cc1c-2nc(O)c2nc(C(=O)O)cn12`: the ED50 in experiment [5] is no more than 2 mg/kg; in experiment [1], 1.2 mg/kg; in [6], 0.5 mg/kg; in experiment [7] it was 1 mg/kg; in experiment [8] it was 0.8 mg/kg; in [9] it was 1.5 mg/kg. Further, the ED50 in experiment [10] was 1 mg/kg; in experiment [11], 0.4 mg/kg; in [13], 1.2 mg/kg; in experiment [14] it was 4.8 mg/kg; in experiment [15], roughly 16 mg/kg; in experiment [16], 1.7 mg/kg. Also, the half-maximal inhibitory concentration (IC50) in [3] came out at 7200 nM; in experiment [12] it was 4 nM; in [4] it was 18 nM; in experiment [2], 5 nM.
In [1], `O=C(O)c1ccc2c(c1)Cc1c-2nc(O)c2nccn12` showed an ED50 greater than 80 mg/kg. The 50% inhibitory concentration (IC50) was 10000 nM in experiment [3], 620 nM in experiment [4] and 2010 nM in [2].

Source of the values: ChEMBL document CHEMBL1132845, “Synthesis and potent anticonvulsant activities of 4-oxo-imidazo[1,2-a]inden” (Bioorg Med Chem Lett, 2000).
